# Legend:
# [1] = tested on: T1, pQR2189; assay: HPLC initial rates, Michaelis-Menten fit; type: biochemical, uncultured bacterium (household drain metagenome); conditions: apparent, PLP 1 mM, KPi pH 8 50 mM, 20% DMSO, 35 °C
# T1 construct: N- and C-terminal His6 tags, pET-28a(+) NdeI/XhoI, expressed in E. coli BL21(DE3)
# Excerpt: HPLC initial rates, Michaelis-Menten fit on pQR2189
# [2] = tested on: T1, pQR2189; assay: continuous UV absorbance at […] nm, Michaelis-Menten fit; type: biochemical, uncultured bacterium (household drain metagenome); conditions: apparent, PLP 0.1 mM, KPi pH 7.5 50 mM, 1% DMSO, 30 °C
compound,measurement,setting,value
"CC(C)(C)OC(=O)N1CCC(=O)C1 [18a, 1-Boc-3-pyrrolidinone]",Km,[1]; isopropylamine 200 mM,18.9 ± 3.1 mM
"C[C@H](N)c1ccccc1 [(S)-7, (S)-α-methylbenzylamine]",Km,[2]; pyruvate 1 mM,14.8 ± 3.2 mM
"CC(=O)C(=O)O [compound 2, pyruvate]",Km,[2]; amine donor (S)-7 5 mM,0.29 ± 0.08 mM
"CC(C)N [compound 27, isopropylamine]",Km,[1]; 1-Boc-3-pyrrolidinone 10 mM,10.6 ± 1.6 mM
